Values quoted from earlier work as cited in patent US9585959B2, “Robust controlled-release formulations” (CAMURUS AB, priority 2011, dated 2017).
*1 amine or outer side, *2 acyl side, *3 side chain or, on linkers, in order; H or OH if unused. Where a SMILES comes first, the peptide text is derived from it. Side-chain parts run from the residue outwards. [ ]: non-standard residue; d: D form. The star is where a group is joined. Ethylenediamine = C(CN[*:2])N[*:1]; Hyp = O=C(O)[C@@H]1C[C@@H](O)CN1; Phg = N[C@H](C(=O)O)c1ccccc1; CO = O=C([*:1])[*:2]; Bn = c1ccc(C*)cc1

Experiments:
[1] = system: SSTRs (SSTR1-SSTR5)
[2] = system: somatostatin receptor subtypes sstr1,2,3 and sstr5
[3] = in vivo

**Q.** With C[C@@H](O)[C@@H]1NC(=O)[C@H](CCCCN)NC(=O)[C@@H](Cc2c[nH]c3ccccc23)NC(=O)[C@H](Cc2ccccc2)NC(=O)[C@@H](NC(=O)[C@H](N)Cc2ccccc2)CSSC[C@@H](C(=O)N[C@H](CO)[C@@H](C)O)NC1=O [Octreotide, D-Phe-Cys-Phe-D-Trp-Lys-Thr-Cys-Thr-ol (2-7 disulphide bridge)] as the compound, how does the Selectivity ([1]; for SSTR2 and SSTR5) read?
**A.** The Selectivity was “high selectivity”.

**Q.** Which Affinity [2] does the source give for NCCCC[C@@H]1NC(=O)[C@@H](Cc2c[nH]c3ccccc23)NC(=O)[C@H](c2ccccc2)NC(=O)[C@@H]2C[C@@H](OC(=O)NCCN)CN2C(=O)[C@H](Cc2ccccc2)NC(=O)[C@H](Cc2ccc(OCc3ccccc3)cc2)NC1=O [Pasireotide] (cyclo(F[Hyp]([CO-Ethylenediamine])[Phg][dW]KY(Bn))) here?
**A.** Its Affinity is “high affinity”.

**Q.** What does the source list for “Ala-Gly-Cys-Lys-Asn-Phe-Phe-Trp-Lys-Thr-Phe-Thr-Ser-Cys [SST-14]”?
**A.** Affinity of the five SSTRs ([1]; SSTR1-SSTR5): equally high affinity; Biological half-life [3]: 1-3 minutes
